What was measured:
[1] = target: T1, Cyclin-G-associated kinase (Homo sapiens, UniProt O14976); experiment: Binding affinity to human wild type partial length GAK (G13 to Y338 residues) expressed in bacterial expression system by KinomeScan method
T1 sequence (O14976 whole entry): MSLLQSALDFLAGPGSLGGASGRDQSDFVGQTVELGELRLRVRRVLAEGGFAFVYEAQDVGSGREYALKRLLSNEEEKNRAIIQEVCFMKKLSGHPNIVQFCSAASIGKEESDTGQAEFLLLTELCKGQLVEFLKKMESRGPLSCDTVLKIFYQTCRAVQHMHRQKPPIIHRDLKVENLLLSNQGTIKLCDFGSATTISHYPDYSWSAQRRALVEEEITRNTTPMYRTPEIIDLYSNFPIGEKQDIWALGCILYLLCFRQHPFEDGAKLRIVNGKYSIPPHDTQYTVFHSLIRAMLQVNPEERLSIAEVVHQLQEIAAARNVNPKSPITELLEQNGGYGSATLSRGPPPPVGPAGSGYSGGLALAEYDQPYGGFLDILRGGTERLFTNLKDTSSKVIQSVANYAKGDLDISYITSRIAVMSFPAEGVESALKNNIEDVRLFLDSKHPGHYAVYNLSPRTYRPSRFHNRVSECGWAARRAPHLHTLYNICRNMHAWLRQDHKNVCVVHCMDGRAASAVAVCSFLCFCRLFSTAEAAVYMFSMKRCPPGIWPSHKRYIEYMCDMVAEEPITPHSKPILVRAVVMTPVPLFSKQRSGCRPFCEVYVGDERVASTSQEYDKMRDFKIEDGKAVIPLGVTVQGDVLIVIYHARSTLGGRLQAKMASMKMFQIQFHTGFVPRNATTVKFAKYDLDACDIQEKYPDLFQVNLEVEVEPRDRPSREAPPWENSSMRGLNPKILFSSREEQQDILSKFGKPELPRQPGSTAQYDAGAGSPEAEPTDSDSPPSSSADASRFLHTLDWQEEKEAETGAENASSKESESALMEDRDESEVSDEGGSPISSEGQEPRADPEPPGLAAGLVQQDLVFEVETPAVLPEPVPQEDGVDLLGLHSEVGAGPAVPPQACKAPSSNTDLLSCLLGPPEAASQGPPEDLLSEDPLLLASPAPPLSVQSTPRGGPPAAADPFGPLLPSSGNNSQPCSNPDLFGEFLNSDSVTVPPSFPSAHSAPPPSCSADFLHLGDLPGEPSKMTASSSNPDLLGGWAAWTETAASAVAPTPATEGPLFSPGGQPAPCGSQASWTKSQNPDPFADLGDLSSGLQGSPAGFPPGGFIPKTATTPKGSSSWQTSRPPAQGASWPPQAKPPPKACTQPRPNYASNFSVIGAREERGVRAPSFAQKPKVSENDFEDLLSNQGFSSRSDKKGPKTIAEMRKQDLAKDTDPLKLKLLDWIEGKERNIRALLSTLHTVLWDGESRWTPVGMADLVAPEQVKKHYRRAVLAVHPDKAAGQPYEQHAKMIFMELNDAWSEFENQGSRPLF

[2] = target: T1, Cyclin-G-associated kinase; experiment: Inhibition of GAK (unknown origin) by in-cell pulse based assay
[3] = target: Dual specificity mitogen-activated protein kinase kinase 5 (Homo sapiens, UniProt Q13163); experiment: Binding affinity to human wild type partial length MEK5 (L98 to P448 residues) expressed in mammalian expression system by Kinomescan method
Ephrin type-A receptor 8 = Ephrin type-A receptor 8 (Homo sapiens, UniProt P29322); experiment: Binding affinity to human wild type partial length EphA8 (Q608 to C920 residues) expressed in bacterial expression system by Kinomescan method
Ephrin type-A receptor 8, sequence (P29322 whole entry, the tested form may be a part): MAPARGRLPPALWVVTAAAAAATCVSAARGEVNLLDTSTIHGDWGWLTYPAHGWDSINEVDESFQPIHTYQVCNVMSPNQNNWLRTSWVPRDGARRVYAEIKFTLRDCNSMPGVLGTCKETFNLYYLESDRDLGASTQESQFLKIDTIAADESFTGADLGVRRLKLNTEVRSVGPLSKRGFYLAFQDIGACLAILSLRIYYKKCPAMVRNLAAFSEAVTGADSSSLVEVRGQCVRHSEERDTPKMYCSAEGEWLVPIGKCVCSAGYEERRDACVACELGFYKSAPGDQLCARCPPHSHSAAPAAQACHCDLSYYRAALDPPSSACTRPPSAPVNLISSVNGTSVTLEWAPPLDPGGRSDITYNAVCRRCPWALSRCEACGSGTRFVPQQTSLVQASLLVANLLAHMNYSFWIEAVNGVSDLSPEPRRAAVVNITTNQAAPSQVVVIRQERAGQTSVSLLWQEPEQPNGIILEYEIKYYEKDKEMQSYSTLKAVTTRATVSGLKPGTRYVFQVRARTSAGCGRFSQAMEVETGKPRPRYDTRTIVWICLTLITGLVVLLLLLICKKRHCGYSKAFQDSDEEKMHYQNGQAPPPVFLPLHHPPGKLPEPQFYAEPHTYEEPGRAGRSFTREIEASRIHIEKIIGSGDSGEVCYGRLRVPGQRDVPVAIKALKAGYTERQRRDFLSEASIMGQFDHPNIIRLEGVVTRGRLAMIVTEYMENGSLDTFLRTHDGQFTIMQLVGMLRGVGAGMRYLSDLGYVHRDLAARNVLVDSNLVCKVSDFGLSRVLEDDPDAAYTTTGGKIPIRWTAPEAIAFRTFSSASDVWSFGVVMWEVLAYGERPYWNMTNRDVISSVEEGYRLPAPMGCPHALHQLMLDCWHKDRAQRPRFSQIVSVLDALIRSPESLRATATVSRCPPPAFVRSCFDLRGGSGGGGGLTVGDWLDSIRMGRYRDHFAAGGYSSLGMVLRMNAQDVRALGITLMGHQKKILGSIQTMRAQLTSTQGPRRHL

Activin receptor type-1 = Activin receptor type-1 (Homo sapiens, UniProt Q04771); experiment: Binding affinity to human wild type partial length ACVR1 (C188 to C509 residues) expressed in bacterial expression system by Kinomescan method
Activin receptor type-1, sequence (Q04771 whole entry, the tested form may be a part): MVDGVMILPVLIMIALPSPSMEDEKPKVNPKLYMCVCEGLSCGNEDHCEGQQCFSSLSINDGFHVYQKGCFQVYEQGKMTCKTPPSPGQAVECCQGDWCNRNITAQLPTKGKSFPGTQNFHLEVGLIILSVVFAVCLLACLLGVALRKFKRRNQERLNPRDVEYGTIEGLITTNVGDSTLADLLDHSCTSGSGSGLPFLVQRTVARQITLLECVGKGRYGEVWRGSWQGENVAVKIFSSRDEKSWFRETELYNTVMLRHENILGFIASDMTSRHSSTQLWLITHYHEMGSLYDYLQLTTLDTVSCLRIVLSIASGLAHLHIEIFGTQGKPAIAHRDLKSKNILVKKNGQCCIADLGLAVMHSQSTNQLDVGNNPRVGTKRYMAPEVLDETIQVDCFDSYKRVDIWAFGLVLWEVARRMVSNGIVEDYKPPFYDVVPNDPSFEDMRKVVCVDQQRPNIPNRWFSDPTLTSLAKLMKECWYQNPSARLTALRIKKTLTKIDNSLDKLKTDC

[4] = target: Receptor-interacting serine/threonine-protein kinase 2 (Homo sapiens, UniProt O43353); experiment: Binding affinity to wild-type human partial length RIPK2 (M1 to K310 residues) expressed in bacterial expression system by Kinomescan method
[5] = target: Bone morphogenetic protein receptor type-1B (Homo sapiens, UniProt O00238); experiment: Binding affinity to human wild type partial length BMPR1B (D178 to L502 residues) expressed in mammalian expression system by Kinomescan method
[6] = target: T2, Tyrosine-protein kinase ABL1 (Homo sapiens, UniProt P00519); experiment: Binding affinity to human wild type partial length non-phosphorylated ABL1 (S229 to K512 residues) expressed in mammalian expression system by Kinomescan method
T2 sequence (P00519 whole entry, the tested form may be a part): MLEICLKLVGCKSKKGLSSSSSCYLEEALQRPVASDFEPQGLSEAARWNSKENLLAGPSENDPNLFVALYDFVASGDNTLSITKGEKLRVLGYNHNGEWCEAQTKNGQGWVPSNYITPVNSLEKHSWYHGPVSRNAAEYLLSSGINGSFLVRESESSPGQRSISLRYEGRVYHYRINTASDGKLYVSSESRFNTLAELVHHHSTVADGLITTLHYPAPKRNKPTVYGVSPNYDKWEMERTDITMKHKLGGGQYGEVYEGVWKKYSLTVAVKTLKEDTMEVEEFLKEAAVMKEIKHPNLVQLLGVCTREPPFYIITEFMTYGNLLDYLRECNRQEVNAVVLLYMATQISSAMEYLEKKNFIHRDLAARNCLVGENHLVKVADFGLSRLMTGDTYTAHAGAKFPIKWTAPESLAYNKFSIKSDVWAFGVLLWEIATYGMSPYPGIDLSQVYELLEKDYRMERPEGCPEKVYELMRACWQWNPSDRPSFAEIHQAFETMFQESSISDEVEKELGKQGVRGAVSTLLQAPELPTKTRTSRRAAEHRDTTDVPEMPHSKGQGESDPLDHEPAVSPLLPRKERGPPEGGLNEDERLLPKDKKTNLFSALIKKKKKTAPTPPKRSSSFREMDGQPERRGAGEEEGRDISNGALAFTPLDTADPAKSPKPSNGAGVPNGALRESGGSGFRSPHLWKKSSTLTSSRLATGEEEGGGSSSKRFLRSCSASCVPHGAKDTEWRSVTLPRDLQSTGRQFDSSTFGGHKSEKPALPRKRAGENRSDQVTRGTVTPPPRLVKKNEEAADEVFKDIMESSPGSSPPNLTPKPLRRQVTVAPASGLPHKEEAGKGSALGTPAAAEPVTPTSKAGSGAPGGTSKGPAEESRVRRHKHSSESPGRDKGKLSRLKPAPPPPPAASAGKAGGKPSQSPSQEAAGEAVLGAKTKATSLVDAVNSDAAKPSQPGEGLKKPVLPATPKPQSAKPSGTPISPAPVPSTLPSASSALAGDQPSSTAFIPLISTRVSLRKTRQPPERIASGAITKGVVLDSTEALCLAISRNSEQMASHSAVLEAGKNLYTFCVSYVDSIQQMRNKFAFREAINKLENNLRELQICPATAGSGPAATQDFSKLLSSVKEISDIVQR

[7] = target: Tyrosine-protein kinase Lck (Homo sapiens, UniProt P06239); experiment: Binding affinity to wild-type human partial length LCK (R207 to P509 residues) expressed in bacterial expression system by Kinomescan method
Tyrosine-protein kinase Lck, sequence (P06239 whole entry, the tested form may be a part): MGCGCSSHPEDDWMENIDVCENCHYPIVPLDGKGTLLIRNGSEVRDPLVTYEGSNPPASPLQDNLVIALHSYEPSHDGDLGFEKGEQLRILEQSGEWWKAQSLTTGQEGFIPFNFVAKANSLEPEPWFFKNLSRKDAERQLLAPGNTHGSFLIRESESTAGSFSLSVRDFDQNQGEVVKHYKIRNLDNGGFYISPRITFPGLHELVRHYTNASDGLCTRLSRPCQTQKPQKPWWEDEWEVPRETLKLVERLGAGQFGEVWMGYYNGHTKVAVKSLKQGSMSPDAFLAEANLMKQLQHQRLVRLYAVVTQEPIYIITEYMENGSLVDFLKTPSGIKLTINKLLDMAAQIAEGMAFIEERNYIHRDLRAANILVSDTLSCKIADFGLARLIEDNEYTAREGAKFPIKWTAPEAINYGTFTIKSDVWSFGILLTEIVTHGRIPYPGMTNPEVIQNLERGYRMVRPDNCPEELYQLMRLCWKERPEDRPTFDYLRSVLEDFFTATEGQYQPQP

Ephrin type-A receptor 1 = Ephrin type-A receptor 1 (Homo sapiens, UniProt P21709); experiment: Binding affinity to human wild type partial length EphA1 (V588 to I913 residues) expressed in bacterial expression system by Kinomescan method
Ephrin type-A receptor 1, sequence (P21709 whole entry, the tested form may be a part): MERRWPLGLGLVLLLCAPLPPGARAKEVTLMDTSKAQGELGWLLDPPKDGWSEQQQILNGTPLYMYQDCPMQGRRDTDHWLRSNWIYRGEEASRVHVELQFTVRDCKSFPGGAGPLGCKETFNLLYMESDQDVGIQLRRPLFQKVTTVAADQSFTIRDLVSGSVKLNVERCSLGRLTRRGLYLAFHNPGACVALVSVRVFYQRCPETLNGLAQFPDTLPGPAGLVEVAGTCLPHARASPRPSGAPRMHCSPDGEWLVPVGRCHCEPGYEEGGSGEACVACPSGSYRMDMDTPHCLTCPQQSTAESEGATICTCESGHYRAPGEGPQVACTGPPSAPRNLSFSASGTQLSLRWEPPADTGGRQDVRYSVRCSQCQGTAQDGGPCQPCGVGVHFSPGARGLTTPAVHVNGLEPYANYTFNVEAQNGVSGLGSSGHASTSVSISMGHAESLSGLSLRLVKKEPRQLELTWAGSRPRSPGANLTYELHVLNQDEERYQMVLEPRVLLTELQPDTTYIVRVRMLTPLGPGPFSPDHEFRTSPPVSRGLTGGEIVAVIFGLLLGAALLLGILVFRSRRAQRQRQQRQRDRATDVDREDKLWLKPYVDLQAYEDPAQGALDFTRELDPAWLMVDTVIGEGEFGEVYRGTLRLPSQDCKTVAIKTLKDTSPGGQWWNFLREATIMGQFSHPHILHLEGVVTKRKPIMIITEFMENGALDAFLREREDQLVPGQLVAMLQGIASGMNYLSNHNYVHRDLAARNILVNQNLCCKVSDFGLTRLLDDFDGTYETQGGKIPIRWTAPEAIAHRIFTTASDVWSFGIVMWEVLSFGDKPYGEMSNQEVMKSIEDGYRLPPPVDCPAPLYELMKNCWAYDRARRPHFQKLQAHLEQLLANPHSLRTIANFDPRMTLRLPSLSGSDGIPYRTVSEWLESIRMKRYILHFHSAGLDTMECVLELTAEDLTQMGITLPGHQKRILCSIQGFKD

Ephrin type-B receptor 6 = target: T3, Ephrin type-B receptor 6 (Homo sapiens, UniProt O15197); experiment: Binding affinity to human wild type partial length EphB6 (Q634 to P948 residues) expressed in mammalian expression system by Kinomescan method
T3 sequence (O15197 whole entry): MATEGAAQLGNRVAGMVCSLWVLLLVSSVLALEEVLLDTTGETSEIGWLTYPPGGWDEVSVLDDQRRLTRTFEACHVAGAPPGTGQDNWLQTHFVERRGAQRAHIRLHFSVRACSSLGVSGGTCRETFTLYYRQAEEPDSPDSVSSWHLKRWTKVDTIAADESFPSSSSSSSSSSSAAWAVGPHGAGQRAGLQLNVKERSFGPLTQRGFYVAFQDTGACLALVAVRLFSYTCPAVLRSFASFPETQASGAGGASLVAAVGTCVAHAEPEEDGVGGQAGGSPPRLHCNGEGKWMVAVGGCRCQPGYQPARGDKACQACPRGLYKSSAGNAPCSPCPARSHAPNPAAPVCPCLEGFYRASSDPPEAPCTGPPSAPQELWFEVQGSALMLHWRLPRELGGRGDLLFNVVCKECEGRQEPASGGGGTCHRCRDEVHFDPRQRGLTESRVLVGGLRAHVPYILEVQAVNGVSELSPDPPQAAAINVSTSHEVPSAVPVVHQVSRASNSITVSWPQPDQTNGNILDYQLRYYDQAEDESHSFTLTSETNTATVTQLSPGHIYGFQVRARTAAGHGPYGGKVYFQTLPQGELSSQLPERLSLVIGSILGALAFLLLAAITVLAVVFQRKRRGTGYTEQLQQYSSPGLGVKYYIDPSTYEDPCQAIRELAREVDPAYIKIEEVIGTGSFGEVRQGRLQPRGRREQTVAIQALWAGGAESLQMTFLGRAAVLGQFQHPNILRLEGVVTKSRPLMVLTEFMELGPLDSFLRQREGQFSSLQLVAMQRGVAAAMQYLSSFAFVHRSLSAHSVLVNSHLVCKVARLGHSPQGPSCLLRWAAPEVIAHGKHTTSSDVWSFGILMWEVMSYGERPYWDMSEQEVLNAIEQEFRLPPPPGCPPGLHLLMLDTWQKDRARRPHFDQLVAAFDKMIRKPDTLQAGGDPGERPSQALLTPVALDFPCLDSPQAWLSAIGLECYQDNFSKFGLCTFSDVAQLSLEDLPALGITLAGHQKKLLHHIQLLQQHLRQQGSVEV

[8] = target: T2, Tyrosine-protein kinase ABL1; experiment: Binding affinity to human wild type partial length phosphorylated ABL1 (S229 to K512 residues) expressed in mammalian expression system by Kinomescan method
[9] = target: Tyrosine-protein kinase TXK (Homo sapiens, UniProt P42681); experiment: Binding affinity to wild-type human partial length TXK (L238 to W527 residues) expressed in bacterial expression system by Kinomescan method
[10] = target: Serine/threonine-protein kinase NLK (Homo sapiens, UniProt Q9UBE8); experiment: Binding affinity to wild-type human full length NLK expressed in bacterial expression system by Kinomescan method
[11] = target: RAF proto-oncogene serine/threonine-protein kinase (Homo sapiens) (UniProt P04049); experiment: Inhibition of human wild type partial length C-Raf (I330 to T640 residues) expressed in bacterial expression system at 1 uM by Kinomescan method relative to control
[12] = target: Interleukin-1 receptor-associated kinase 3 (Homo sapiens, UniProt Q9Y616); experiment: Binding affinity to human wild type partial length IRAK3 (V147 to E596 residues) expressed in bacterial expression system by Kinomescan method
Interleukin-1 receptor-associated kinase 3, sequence (Q9Y616 whole entry, the tested form may be a part): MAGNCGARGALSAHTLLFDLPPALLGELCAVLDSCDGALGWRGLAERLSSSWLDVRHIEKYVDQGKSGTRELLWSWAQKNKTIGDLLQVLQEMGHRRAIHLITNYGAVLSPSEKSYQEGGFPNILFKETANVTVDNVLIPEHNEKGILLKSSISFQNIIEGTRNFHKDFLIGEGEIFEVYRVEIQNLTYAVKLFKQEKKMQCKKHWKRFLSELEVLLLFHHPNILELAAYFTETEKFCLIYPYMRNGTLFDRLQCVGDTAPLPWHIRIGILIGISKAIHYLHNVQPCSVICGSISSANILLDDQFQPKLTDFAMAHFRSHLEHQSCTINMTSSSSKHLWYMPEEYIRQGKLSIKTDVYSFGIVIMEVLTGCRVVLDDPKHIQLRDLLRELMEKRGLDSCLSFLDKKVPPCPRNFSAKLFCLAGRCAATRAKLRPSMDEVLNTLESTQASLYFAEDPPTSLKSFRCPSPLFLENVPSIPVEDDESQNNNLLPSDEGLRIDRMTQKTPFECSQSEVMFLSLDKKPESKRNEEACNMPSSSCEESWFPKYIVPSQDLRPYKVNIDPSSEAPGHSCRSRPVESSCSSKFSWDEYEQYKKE

[13] = target: Atypical kinase COQ8A, mitochondrial (Homo sapiens, UniProt Q8NI60); experiment: Binding affinity to human wild type full-length ADCK3 expressed in bacterial expression system by Kinomescan method

COc1cc(Nc2ccnc3ccc(C(C)(C)C)cc23)cc(OC)c1OC
Kd [1]: 34 nM

COc1cc(Nc2cc(C)nc3ccc(C(F)(F)F)cc23)cc(OC)c1OC
Kd [1]: > 30000 nM | IC50 [2]: > 10000 nM

COc1cc2nccc(Nc3cc(OC)c(OC)c(OC)c3)c2cc1OC
Kd [3]: 430 nM | Kd (Ephrin type-A receptor 8): 560 nM | Kd (Activin receptor type-1): 1300 nM | Kd [1]: 11 nM | Kd [4]: 190 nM | Kd [5]: 280 nM | Kd [6]: 170 nM | Kd [7]: 350 nM | Kd (Ephrin type-A receptor 1): 1300 nM | Kd (Ephrin type-B receptor 6): 130 nM | Kd [8]: 92 nM

COc1cc(Nc2ccnc3ccc(C(F)(F)F)cc23)cc(OC)c1OC
Kd (Ephrin type-A receptor 8): 1100 nM | Kd [9]: 1400 nM | Kd [6]: 1900 nM | Kd [7]: 1100 nM | Kd (Ephrin type-A receptor 1): 3100 nM | Kd (Ephrin type-B receptor 6): 1600 nM | Kd [10]: 690 nM

COc1ccc2c(Nc3cc(OC)c(OC)c(OC)c3)ccnc2c1
Kd [1]: 35 nM | inhibition [11]: 20%

COc1cc(Nc2ccnc3ccc(Cl)cc23)cc(OC)c1OC
Kd [1]: 6.3 nM

COc1cc(Nc2ccnc3ccc(I)cc23)cc(OC)c1OC
Kd [1]: 8.6 nM

COc1cc(Nc2ccnc3ccccc23)cc(OC)c1OC
Kd [1]: 170 nM

COc1cc(Nc2ncnc3ccc(C(F)(F)F)cc23)cc(OC)c1OC
Kd [1]: 130 nM

COc1ccc2nccc(Nc3cc(OC)c(OC)c(OC)c3)c2c1
Kd [1]: 48 nM

COc1cc(N(C)c2ccnc3ccc(C(F)(F)F)cc23)cc(OC)c1OC
Kd [1]: 9900 nM | IC50 [2]: > 10000 nM | Kd [12]: 480 nM

COc1cc(Nc2ccnc3ccc(Br)cc23)cc(OC)c1OC
Kd (Activin receptor type-1): 1000 nM | Kd [13]: 260 nM | Kd [6]: 1200 nM | Kd (Ephrin type-B receptor 6): 710 nM

COc1cc(Nc2ccnc3ccc(C#N)cc23)cc(OC)c1OC
Kd [1]: 4.9 nM

— ChEMBL document CHEMBL4665659, “Utilizing comprehensive and mini-kinome panels to optimize the selectivity of quinoline inhibitors for cyclin G associated kinase (GAK)” (Bioorg Med Chem Lett, 2019)
